The values below come from US11649255B2, “Indazoles as hematopoietic progenitor kinase 1 (HPK1) inhibitors and methods using same” (1st Biotherapeutics, Inc., priority 2020, dated 2023).

Each structure is given as a SMILES string. Counter-ions that a name gives are not always drawn.

Sequence of recombinant human HPK1 (Q92918 whole entry): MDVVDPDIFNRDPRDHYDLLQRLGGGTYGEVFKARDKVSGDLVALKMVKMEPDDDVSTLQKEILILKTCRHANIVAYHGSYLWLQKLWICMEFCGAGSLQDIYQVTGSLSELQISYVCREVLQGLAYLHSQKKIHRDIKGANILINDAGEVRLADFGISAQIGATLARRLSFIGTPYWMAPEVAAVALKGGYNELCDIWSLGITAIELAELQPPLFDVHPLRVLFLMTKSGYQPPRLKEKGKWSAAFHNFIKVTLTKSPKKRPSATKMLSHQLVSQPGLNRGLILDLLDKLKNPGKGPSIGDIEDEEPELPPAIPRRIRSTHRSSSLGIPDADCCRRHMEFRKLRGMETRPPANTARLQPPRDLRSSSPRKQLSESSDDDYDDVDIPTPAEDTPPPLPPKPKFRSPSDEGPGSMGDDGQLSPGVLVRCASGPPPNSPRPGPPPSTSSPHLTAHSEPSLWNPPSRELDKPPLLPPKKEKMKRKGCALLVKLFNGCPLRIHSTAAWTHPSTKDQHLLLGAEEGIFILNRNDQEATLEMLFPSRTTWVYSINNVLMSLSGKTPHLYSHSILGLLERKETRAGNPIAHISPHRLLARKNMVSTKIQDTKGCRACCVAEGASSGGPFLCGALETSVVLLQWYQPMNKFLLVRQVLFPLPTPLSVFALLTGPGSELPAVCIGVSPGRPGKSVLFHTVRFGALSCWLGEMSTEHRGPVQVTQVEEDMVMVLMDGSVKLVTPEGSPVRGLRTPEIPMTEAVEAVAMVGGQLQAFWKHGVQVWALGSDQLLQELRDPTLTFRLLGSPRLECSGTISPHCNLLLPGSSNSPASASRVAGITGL

This assay deals with recombinant human HPK1 (Homo sapiens (Human), UniProt Q92918). Kind of assay: HPK1 kinase assay (ADP-Glo). The assay is classed as biochemical. The following applies: 25 μM ATP, MBP substrate. An outline of the steps:
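Activity was read as ADP formed, detected by ADP-Glo luminescence after the reaction of 5 ng recombinant human HPK1 with MBP and ATP (stocks 0.5 μg/μl and 25 μM) for 40 min at 30 °C. Buffer was Tris pH 7.5 with MgCl2, BSA and DTT, with compound in 0.5% DMSO. IC50 came from inhibition curves.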
Background: ADP-Glo first removes unused ATP, then detects ADP through luciferase.
Consider `CN(Nc1c(F)c(Cl)c(-c2ccc3nc(NC(=O)[C@@H]4C[C@@H]4F)sc3c2)c2cn[nH]c12)C(=O)OC(C)(C)C` [Example 114, tert-butyl 2-(5-chloro-6-fluoro-4-(2-((1S,2S)-2-fluorocyclopropane-1-carboxamido)benzo[d]thiazol-6-yl)-1H-indazol-7-yl)-1-methylhydrazine-1-carboxylate], for which the IC50 lay in the range of 101 to 500 nM.
In the case of `O=C(Nc1cn2cc(-c3cccc4[nH]ncc34)ccc2n1)[C@@H]1C[C@@H]1F` [Example 222, (1S,2S)-N-(6-(1H-indazol-4-yl)imidazo[1,2-a]pyridin-2-yl)-2-fluorocyclopropane-1-carboxamide], the 50% inhibitory concentration (IC50) was in the range of 501 to 1000 nM.
The value for `Cc1c(F)c(Cl)c(-c2ccc3nc(NC(=O)[C@@H]4C[C@@H]4F)sc3c2)c2cn[nH]c12` [Example 57, (1S,2S)-N-(6-(5-chloro-6-fluoro-7-methyl-1H-indazol-4-yl)benzo[d]thiazol-2-yl)-2-fluorocyclopropane-1-carboxamide] was under 100 nM; that for `Cc1c(F)c(Cl)c(-c2ccc3nc(NC(=O)[C@@H]4C[C@@H]4F)sc3n2)c2cn[nH]c12` [Example 211, (1S,2S)-N-(5-(5-chloro-6-fluoro-7-methyl-1H-indazol-4-yl)thiazolo[5,4-b]pyridin-2-yl)-2-fluorocyclopropane-1-carboxamide] was under 100 nM; that for `CNC(=O)c1c(F)c(C)c(-c2ccc3nc(NC(=O)[C@@H]4C[C@@H]4F)sc3c2)c2cn[nH]c12` [Example 132, 6-fluoro-4-(2-((1S,2S)-2-fluorocyclopropane-1-carboxamido)benzo[d]thiazol-6-yl)-N,5-dimethyl-1H-indazole-7-carboxamide] was 101 to 500 nM.
The value for `CC(c1c(F)c(Cl)c(-c2ccc3nc(NC(=O)[C@@H]4C[C@@H]4F)cn3c2)c2cn[nH]c12)N(C)C` (stereo partly drawn) [Example 396, (1S,2S)-N-(6-(5-chloro-7-(1-(dimethylamino)ethyl)-6-fluoro-1H-indazol-4-yl)imidazo[1,2-a]pyridin-2-yl)-2-fluorocyclopropane-1-carboxamide. Formaic acid salt] was under 100 nM; that for `CCc1c(F)c(C(F)(F)F)c2[nH]ncc2c1-c1ccc2nc(NC(=O)[C@@H]3C[C@@H]3F)cn2c1` [Example 339, (1S,2S)-N-(6-(5-ethyl-6-fluoro-7-(trifluoromethyl)-1H-indazol-4-yl)imidazo[1,2-a]pyridin-2-yl)-2-fluorocyclopropane-1-carboxamide] was under 100 nM; that for `C=Cc1cc(C)c(-c2ccn3nc(NC(=O)[C@@H]4C[C@@H]4F)cc3c2)c2cn[nH]c12` [Example 483, (1S,2S)-2-fluoro-N-(5-(5-methyl-7-vinyl-1H-indazol-4-yl)pyrazolo[1,5-a]pyridin-2-yl)cyclopropane-1-carboxamide] was under 100 nM.
As for `CC(NC=O)c1c(F)c(Cl)c(-c2ccc3nc(NC(=O)[C@@H]4C[C@@H]4F)cn3c2)c2cn[nH]c12` (stereo partly drawn) [Example 426, (1S,2S)-N-(6-(5-chloro-6-fluoro-7-(1-formamidoethyl)-1H-indazol-4-yl)imidazo[1,2-a]pyridin-2-yl)-2-fluorocyclopropane-1-carboxamide], the IC50 was under 100 nM.
Next, `O=C(Nc1cc2cc(-c3c(Cl)c(F)c(CF)c4[nH]ncc34)ccn2n1)[C@@H]1C[C@@H]1F` [Example 634, (1S,2S)-N-(5-(5-chloro-6-fluoro-7-(fluoromethyl)-1H-indazol-4-yl)pyrazolo[1,5-a]pyridin-2-yl)-2-fluorocyclopropane-1-carboxamide]: under 100 nM; `Nc1cc2[nH]ncc2c(-c2ccc3nc(NC(=O)[C@@H]4C[C@@H]4F)cn3c2)c1Cl` [Example 284, (1S,2S)-N-(6-(6-amino-5-chloro-1H-indazol-4-yl)imidazo[1,2-a]pyridin-2-yl)-2-fluorocyclopropane-1-carboxamide]: 101 to 500 nM; `Cn1nnnc1-c1c(F)c(Cl)c(-c2ccn3nc(NC(=O)[C@@H]4C[C@@H]4F)cc3c2)c2cn[nH]c12` [Example 594, (1S,2S)-N-(5-(5-chloro-6-fluoro-7-(1-methyl-1H-tetrazol-5-yl)-1H-indazol-4-yl)pyrazolo[1,5-a]pyridin-2-yl)-2-fluorocyclopropane-1-carboxamide]: under 100 nM.
For `CCN(CC)c1c(F)c(Cl)c(-c2ccn3nc(NC(=O)[C@@H]4C[C@@H]4F)cc3c2)c2cn[nH]c12` [Example 497, (1S,2S)-N-(5-(5-chloro-7-(diethylamino)-6-fluoro-1H-indazol-4-yl)pyrazolo[1,5-a]pyridin-2-yl)-2-fluorocyclopropane-1-carboxamide], the 50% inhibitory concentration (IC50) is under 100 nM.
The value for `CSc1c(F)cc(-c2ccc3nc(NC(=O)[C@@H]4C[C@@H]4F)cn3c2)c2cn[nH]c12` [Example 342, (1S,2S)-2-fluoro-N-(6-(6-fluoro-7-(methylthio)-1H-indazol-4-yl)imidazo[1,2-a]pyridin-2-yl)cyclopropane-1-carboxamide] was under 100 nM; that for `O=C(Nc1cc2cc(-c3c(C4CC4)ccc4[nH]ncc34)ccn2n1)[C@@H]1C[C@@H]1F` [Example 459, (1S,2S)-N-(5-(5-cyclopropyl-1H-indazol-4-yl)pyrazolo[1,5-a]pyridin-2-yl)-2-fluorocyclopropane-1-carboxamide] was 101 to 500 nM; that for `COCCOc1ccc2[nH]ncc2c1-c1ccc2nc(NC(=O)[C@@H]3C[C@@H]3F)sc2c1` [Example 34, (1S,2S)-2-fluoro-N-(6-(5-(2-methoxyethoxy)-1H-indazol-4-yl)benzo[d]thiazol-2-yl)cyclopropane-1-carboxamide] was over 1000 nM.
The value for `O=C(Nc1cn2cc(-c3c(Cl)c(F)c(CF)c4[nH]ncc34)ccc2n1)[C@@H]1C[C@@H]1F` [Example 363, (1S,2S)-N-(6-(5-chloro-6-fluoro-7-(fluoromethyl)-1H-indazol-4-yl)imidazo[1,2-a]pyridin-2-yl)-2-fluorocyclopropane-1-carboxamide] was under 100 nM; that for `CNC(=O)c1c(F)c(C)c(-c2ccn3nc(NC(=O)[C@@H]4C[C@@H]4F)cc3c2)c2cn[nH]c12` [Example 584, 6-fluoro-4-(2-((1S,2S)-2-fluorocyclopropane-1-carboxamido)pyrazolo[1,5-a]pyridin-5-yl)-N,5-dimethyl-1H-indazole-7-carboxamide] was 101 to 500 nM; that for `C=CC(=O)Nc1cc2[nH]ncc2c(-c2ccc3nc(NC(=O)[C@@H]4C[C@@H]4F)cn3c2)c1C` [Example 289, (1S,2S)-N-(6-(6-acrylamido-5-methyl-1H-indazol-4-yl)imidazo[1,2-a]pyridin-2-yl)-2-fluorocyclopropane-1-carboxamide] was over 1000 nM.
Consider `CC1CN(c2c(F)c(Cl)c(-c3ccn4nc(NC(=O)[C@@H]5C[C@@H]5F)cc4c3)c3cn[nH]c23)C1` [Example 630, (1S,2S)-N-(5-(5-chloro-6-fluoro-7-(3-methylazetidin-1-yl)-1H-indazol-4-yl)pyrazolo[1,5-a]pyridin-2-yl)-2-fluorocyclopropane-1-carboxamide], for which the IC50 is under 100 nM.
For the compound `Cc1c(F)c(C(F)(F)F)c2[nH]ncc2c1-c1ccc2nc(NC(=O)[C@@H]3C[C@@H]3F)sc2n1` [Example 205, (1S,2S)-2-fluoro-N-(5-(6-fluoro-5-methyl-7-(trifluoromethyl)-1H-indazol-4-yl)thiazolo[5,4-b]pyridin-2-yl)cyclopropane-1-carboxamide], the half-maximal inhibitory concentration (IC50) is under 100 nM.

As usually defined, the IC50 is the point on the concentration scale where inhibition reaches its midpoint.
